In patent US10278942B2 (PELOTON THERAPEUTICS, INC., priority 2015, dated 2019):
Where two headings read alike, the source gives them in different places.

Molecular target: T1, HIF-2α HIS TAG-PASB Domain (Homo sapiens, UniProt Q99814)
T1 construct: 100 nM HIF-2α HIS TAG-PASB Domain
Test: HIF-2α Scintillation Proximity Assay (SPA)
Assay type: binding
Protocol: The total assay volume was about 100 μL in the following configuration: 2 μL compound in 100% DMSO, 88 μL buffer with protein and probe and 10 μL of SPA beads. […] The percent inhibition was determined and IC50 values were calculated using the Dotmatics system based on the following equation: % inhibition=[(high control−sample)/(high control−low control)]×100.

[1] = read-out: Scintillation Proximity Assay IC50
[2] = Scintillation Proximity Assay IC50 (nM)

T1 sequence (Q99814 240-350 limits assumed): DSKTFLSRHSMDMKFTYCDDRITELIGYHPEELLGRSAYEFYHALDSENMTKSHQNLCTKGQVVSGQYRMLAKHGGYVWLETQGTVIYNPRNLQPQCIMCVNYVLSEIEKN

IC50 [1] | Compound | IC50 [2]
250 to 1000 nM | N=S(=O)(c1ccc(Oc2cc(F)cc(Cl)c2)c(Br)c1)C(F)(F)F (centres unmarked) [Compound 71] | –
> 1000 nM | COc1ccc(S(C)(=O)=O)c2c1CC(F)(F)[C@H]2O [Compound 777] | –
> 1000 nM | CS(=O)(=O)c1cc(F)c(Oc2cc(F)cc(C#N)c2)c2c1C(O)C(F)(F)C2 (centres unmarked) [Compound 219] | –
> 1000 nM | N#Cc1cc(F)cc(Oc2ccc3c(c2C(F)F)[C@H](N)C(F)(F)S3(=O)=O)c1 [Compound 384] | –
> 1000 nM | CS(=O)(=O)c1ccc(Oc2cc(F)cc(C#N)c2)c2c1[C@H](O)C(F)(F)[C@H]2O [Compound 311] | –
> 1000 nM | N#Cc1cncc(Oc2ccc(S(=O)(=O)CF)c3c2[C@H](F)C(F)(F)[C@H]3O)c1 [Compound 345] | –
250 to 1000 nM | O=S(=O)(c1ccc(CCCO)c2c1C(O)CC2)C(F)(F)F (centres unmarked) [Compound 522, 4-(3-hydroxypropyl)-7-((trifluoromethyl)sulfonyl)-2,3-dihydro-1H-inden-1-ol] | –
> 1000 nM | CC1(O)c2c(ccc(OC3CC(F)(F)C3)c2C#N)S(=O)(=O)C1(F)F (centres unmarked) [Compound 461] | –
> 1000 nM | CS(=O)(=O)N1CCC(Oc2ccc(S(=O)(=O)C(F)(F)F)c3c2CC(F)(F)C3O)C1 (centres unmarked) [Compound 630] | –
> 1000 nM | N#Cc1cc(Oc2ccc(S(=O)(=O)C(F)F)c3c2CC(F)(F)C3=O)ccc1F [Compound 199] | –
> 1000 nM | NCCOc1ccc(S(=O)(=O)C(F)(F)F)c2c1CC(F)(F)C2O (centres unmarked) [Compound 635] | –
> 1000 nM | O=C1CC[C@@H](Oc2ccc(S(=O)(=O)C(F)(F)F)c3c2CC(F)(F)[C@H]3O)CN1 [Compound 720] | –
> 1000 nM | O=S(=O)(c1ccc(OC2CCOC2)c2c1C(O)CC2)C(F)(F)F (centres unmarked) [Compound 596] | –
> 1000 nM | CS(=O)(=O)N=S(=O)(CF)c1ccc(Oc2cc(F)cc(C#N)c2)c2c1[C@H](O)C(F)(F)C2 (some centres unmarked) [Compound 284] | –
> 1000 nM | CS(=O)(=O)c1ccc(Nc2cc(F)cc(C#N)c2)c2c1C(O)C(F)(F)C2 (centres unmarked) [Compound 502] | –
> 1000 nM | CS(=O)(=O)c1ccc(Oc2cncc(Br)c2)c2c1C(=O)C(F)(F)C2 [Compound 323] | –
> 1000 nM | N#Cc1c(Oc2cc(F)cc(Cl)c2)ccc(S(=O)(=O)C(F)(F)F)c1C(=O)O [Compound 105] | –
> 1000 nM | NC(=O)C1CCc2c(OCC(F)F)ccc(C(=O)O)c21 (centres unmarked) [Compound 693] | –
> 1000 nM | CS(=O)(=O)c1ccc(OC2CC2)c2c1[C@H](O)C(F)(F)[C@@H]2F [Compound 773] | –
> 1000 nM | CC1(C)C=C(c2ccc(S(=O)(=O)C(F)(F)F)c3c2CC(F)(F)[C@H]3O)C(O)CC1 (some centres unmarked) [Compound 543] | –
250 to 1000 nM | CS(=O)(=O)c1ccc(Oc2cc(F)cc(Cl)c2)c2c1C(O)CC2CO (centres unmarked) [Compound 281] | –
> 1000 nM | N#Cc1c(Oc2cc(F)cc(Cl)c2)ccc2c1[C@H](O)CS2(=O)=O [Compound 407] | –
> 1000 nM | CS(=O)(=O)c1ccc(Nc2ccc(F)cc2)c2c1C(O)CC2 (centres unmarked) [Compound 497] | –
> 1000 nM | NC1c2c(ccc(Oc3cc(F)cc(F)c3)c2C(F)F)S(=O)(=O)C1F (centres unmarked) [Compound 366] | –
50 to 249 nM | CC1(O)c2c(ccc(Oc3cc(F)cc(C#N)c3)c2C(F)F)S(=O)(=O)C1(F)F (centres unmarked) [Compound 442] | –
> 1000 nM | N#Cc1c(Oc2cc(F)cc(F)c2)ccc2c1C(O)(C(F)(F)F)CS2(=O)=O (centres unmarked) [Compound 448] | –
< 50 nM | N#Cc1cncc(Oc2ccc(S(N)(=O)=O)c3c2[C@@H](F)C(F)(F)[C@H]3O)c1 [Compound 340] | –

IC50 [1] | Compound | IC50 [2]
> 1000 nM | CS(=O)(=O)c1ccc(Oc2cc(F)cc(C#N)c2)c2c1C(O)CCC2 (centres unmarked) [Compound 95] | –
> 1000 nM | CNCCOc1ccc(S(=O)(=O)C(F)(F)F)c2c1CC(F)(F)C2O (centres unmarked) [Compound 650] | –
> 1000 nM | O=S(=O)(c1ccc(Oc2cc(F)cc(Cl)c2)c(Cl)c1CNC1CCCOC1)C(F)F (centres unmarked) [Compound 49] | –
250 to 1000 nM | O=S(=O)(CF)c1ccc(Oc2cc(F)cc(Cl)c2)c(Br)c1 [Compound 137] | –
> 1000 nM | CCOc1ccc(C#N)c2c1CC(F)(F)[C@H]2O [Compound 674] | –
> 1000 nM | Cn1cc(-c2ccc(S(=O)(=O)C(F)(F)F)c3c2CC(F)(F)[C@H]3O)cn1 [Compound 566] | –
> 1000 nM | N#Cc1c(I)ccc(Oc2cc(F)cc(Cl)c2)c1Br [Compound 96] | –
> 1000 nM | O=S(=O)(c1ccc(Oc2cc(F)cc3[nH]ncc23)c2c1C(O)C(F)(F)C2)C(F)(F)F (centres unmarked) [Compound 262] | –
250 to 1000 nM | O=S(=O)(c1ccc(Oc2cc(F)cc(F)c2)c2c1C(CO)CC2)C(F)F (centres unmarked) [Compound 24] | –
> 1000 nM | O=S(=O)(c1ccc(Oc2cc(F)cc(Cl)c2)c(Cl)c1CNCC(F)(F)F)C(F)F [Compound 47] | –
< 50 nM | O[C@H]1c2c(C(F)(F)F)ccc(OC3CC(F)(F)C3)c2CC1(F)F [Compound 587] | –
> 1000 nM | O=S(=O)(c1ccc(Oc2cc(Cl)ccc2F)c(Br)c1)C(F)(F)F [Compound 170] | –
> 1000 nM | O=S(=O)(c1ccc(N2CCOCC2)c2c1[C@H](O)C(F)(F)C2)C(F)(F)F [Compound 490, (S)-2,2-difluoro-4-morpholino-7-((trifluoromethyl)sulfonyl)-2,3-dihydro-1H-inden-1-ol] | –
> 1000 nM | N#Cc1ccc(OCC(F)F)c2c1[C@H](O)C(F)(F)C2 [Compound 688] | –
> 1000 nM | O=S(=O)(c1ccc(Oc2cccc(C(F)(F)F)c2)c(Br)c1CO)C(F)F [Compound 89] | –
> 1000 nM | COc1ccc(S(C)(=O)=O)c2c1CCC2O (centres unmarked) [Compound 776] | –
> 1000 nM | COc1ccc(S(=O)(=O)C(F)(F)F)c2c1CC(F)(F)C2O (centres unmarked) [Compound 590] | –
> 1000 nM | OC1c2c(-c3cn[nH]c3)ccc(OCC(F)F)c2CC1(F)F (centres unmarked) [Compound 684] | –
– | CC1(C)C(O)c2c(ccc(Oc3cc(F)cc(Cl)c3)c2Br)S1(=O)=O (centres unmarked) [Compound 406] | > 1000 nM
> 1000 nM | N#Cc1ccc(Oc2cc(F)cc(F)c2)c2c1[C@H](O)CC2 [Compound 66] | –
> 1000 nM | O=S(=O)(c1ccc(-c2cn[nH]c2)c2c1[C@H](O)C(F)(F)C2)C(F)(F)F [Compound 560] | –
> 1000 nM | CC1(O)c2c(ccc(OCc3ccccc3)c2C#N)S(=O)(=O)C1(F)F (centres unmarked) [Compound 459] | –
> 1000 nM | CN1CCCC(Oc2ccc(S(=O)(=O)C(F)(F)F)c3c2CC(F)(F)C3O)C1 (centres unmarked) [Compound 634] | –
> 1000 nM | O=S(=O)(c1ccc(OC2CCOCC2)c2c1C(O)CC2)C(F)(F)F (centres unmarked) [Compound 745] | –
50 to 249 nM | O/N=C1/c2c(C(F)(F)F)ccc(OCCCF)c2[C@@H](F)C1(F)F [Compound 700] | –
> 1000 nM | O=S(=O)(c1ccc(-c2ccc3cn[nH]c3c2)c2c1[C@H](O)C(F)(F)C2)C(F)(F)F [Compound 568] | –
> 1000 nM | N#Cc1cc(F)cc(Oc2ccc(S(N)(=O)=O)c3c2[C@@H](O)C(F)(F)[C@H]3O)c1 [Compound 337] | –

IC50 [1] | Compound | IC50 [2]
> 1000 nM | CS(=O)(=O)N1CCCC(Oc2ccc(S(=O)(=O)C(F)(F)F)c3c2CC(F)(F)C3O)C1 (centres unmarked) [Compound 628] | –
> 1000 nM | N#Cc1c(Oc2cc(F)cc(Cl)c2)ccc(S(=O)(=O)C(F)(F)F)c1Cl [Compound 28] | –
– | N#Cc1cncc(Oc2ccc3c(c2C(F)F)C(O)C(F)(F)S3(=O)=O)c1 (centres unmarked) [Compound 383] | 50 to 249 nM
> 1000 nM | CS(=O)(=O)c1ccc(Oc2cc(F)cc(C#N)c2)c2c1C(O)C1(CC1)C2 (centres unmarked) [Compound 217] | –
> 1000 nM | NC1CCc2c(Oc3cc(F)cc(F)c3)ccc(S(=O)(=O)C(F)F)c21 (centres unmarked) [Compound 19] | –
> 1000 nM | O=S(=O)(c1ccc(Oc2cc(F)cc(Cl)c2)c2c1COC2O)C(F)F (centres unmarked) [Compound 88] | –
> 1000 nM | CC(Oc1ccc(S(=O)(=O)C(F)(F)F)c2c1CC(F)(F)C2O)C(N)=O (centres unmarked) [Compound 649] | –
> 1000 nM | O=S(=O)(c1ccc(NCc2cccs2)c2c1[C@H](O)C(F)(F)C2)C(F)F [Compound 528] | –
> 1000 nM | CCOc1ccc(C(F)(F)F)c2c1CC[C@H]2O [Compound 673] | –
> 1000 nM | CC1(C)CC[C@H](O)[C@@H](c2ccc(S(=O)(=O)C(F)(F)F)c3c2CC(F)(F)[C@H]3O)C1 [Compound 544] | –
> 1000 nM | CC(Oc1ccc(S(=O)(=O)C(F)(F)F)c2c1CC(F)(F)C2O)C(=O)O (centres unmarked) [Compound 646] | –
> 1000 nM | O=S(=O)(c1ccc(OC2CCC(O)CC2)c2c1C(O)CC2)C(F)(F)F (centres unmarked) [Compound 615] | –
> 1000 nM | N#Cc1cc(F)cc(Oc2ccc3c(c2C(F)F)C(O)(C(F)(F)F)C(F)(F)S3(=O)=O)c1 (centres unmarked) [Compound 445] | –
250 to 1000 nM | N#Cc1cc(S(=N)(=O)C(F)(F)F)ccc1Oc1cc(F)cc(Cl)c1 (centres unmarked) [Compound 72] | –
> 1000 nM | Cc1c(S(C)(=O)=O)ccc(Oc2cc(F)cc(C#N)c2)c1C#N [Compound 51] | –
> 1000 nM | CS(=O)(=O)c1ccc(O[C@H]2CC[C@@H](C#N)CC2)c2c1[C@H](O)C(F)(F)[C@@H]2F [Compound 758] | –
– | O=S(=O)(c1ccc(Oc2cc(F)cc(Cl)c2)c(CO)c1)C(F)(F)F [Compound 122] | > 1000 nM
< 50 nM | N#Cc1cc(F)cc(Oc2ccc3c(c2C(F)F)C(N)C(F)(F)S3(=O)=O)c1 (centres unmarked) [Compound 372] | –
< 50 nM | O[C@H]1c2c(C(F)(F)F)ncc(O[C@H]3C[C@H](F)C3)c2C[C@H]1F [Compound 478] | –
250 to 1000 nM | O=C1c2c(S(=O)(=O)C(F)F)ccc(Oc3ccc(F)c(Br)c3)c2CC1(F)F [Compound 193] | –
> 1000 nM | O=C1c2c(ccc(Oc3cc(F)cc(Cl)c3)c2Br)S(=O)(=O)C1(F)F [Compound 354] | –
> 1000 nM | O=S(=O)(c1ccc(OCC2CC2)c2c1C(O)CC2)C(F)(F)F (centres unmarked) [Compound 597] | –
< 50 nM | NS(=O)(=O)c1ccc(Oc2cncc(F)c2)c2c1[C@H](O)C(F)(F)[C@@H]2F [Compound 341] | –
> 1000 nM | NC(=O)Cc1ccc(S(=O)(=O)C(F)(F)F)c2c1CC[C@H]2O [Compound 525] | –
– | Cc1c(Oc2cc(F)cc(Cl)c2)ccc2c1C(O)C(F)(F)S2(=O)=O (centres unmarked) [Compound 359] | < 50 nM
> 1000 nM | C=CS(=O)(=O)c1ccc(Oc2cc(F)cc(Cl)c2)c(Br)c1 [Compound 130] | –
